Assay results from publication PMC6218799 (BioMed Research International, 2018).

Experiments:
CYP3A4 [1] = experiment: Cocktail method in rats: pharmacokinetics of probe drug midazolam (CYP3A4 activity); conditions: male, Wistar, rat, plasma, iv, 5 mg/kg, midazolam 5 mg/kg iv; for AUC(0-t): AUC0~t; for AUC(0-inf): AUC0~∞; for clearance: Cl
Experimental: (§1) UltiMate3000 HPLC equipped with diode array detector was used to analyze the compounds.
(§2) Forty-eight male Wistar rats (220 ± 20 g) were randomly divided into two control groups, two Digeda groups, and two positive groups (n=8). […] The other groups were given the mixture of two probe drugs (omeprazole and midazolam were 10 mg/kg and 5 mg/kg) by intravenous injection.
(§3) The samples were immediately centrifuged at 3500 r/min for 10 min, and 200 μL plasma was obtained from each sample.
(§4) The plasma samples were extracted. In a 5 mL centrifuge tube, 100 μL of the IS working solution (0.1 mg/mL) was added to 200 uL of collected plasma sample followed by the addition of 2 mL of dichloromethane. After the tube was vortex-mixed for 5 min, the sample was centrifuged at 3500 r/min for 10 min. 1.2 mL of the organic phase was transferred into the other glass tube and was dried by nitrogen. The residue was redissolved with 200 μL methanol and then injected into the HPLC system for analysis. The concentration of probe drugs in plasma was measured by HPLC.
(§5) Plasma probe drug concentration versus time data for each rat was analyzed by DAS software (version 3.0, Drug Clinical Research Center of Shanghai University of TCM and Shanghai BioGuider Medicinal Technology, Co. Ltd., China). The pharmacokinetic parameters of the Digeda group and control group probe drugs with the t-test were analyzed using SPSS 17.0 statistical software. p < 0.05 was considered statistically significant.

CYP1A2 [2] = system: CYP1A2; set-up: method as in ref 43 = [43]; 43 Du Y. Zhu R.-H. Su F.-L. Wang F. Liang H.-X. Li H.-D. Effect of oleanolic acid on CYP1A2, CYP2E1 and CYP3A4 activity in healthy subjects Chinese Pharmaceutical Journal 2008 43 4 300 303 2-s2.0-5304; conditions: healthy volunteers; cited from earlier work
CYP3A4 [3] = conditions: healthy volunteers; cited from earlier work
CYP2E1 = system: CYP2E1; set-up: method as in ref 43 = [43]; 43 Du Y. Zhu R.-H. Su F.-L. Wang F. Liang H.-X. Li H.-D. Effect of oleanolic acid on CYP1A2, CYP2E1 and CYP3A4 activity in healthy subjects Chinese Pharmaceutical Journal 2008 43 4 300 303 2-s2.0-5304; conditions: healthy volunteers; cited from earlier work
CYP2C19 [4] = experiment: Cocktail method in rats: pharmacokinetics of probe drug omeprazole (CYP2C19 activity); type: in vivo; conditions: male, Wistar, omeprazole 10 mg/kg iv
Experimental: as §1, §2, §3, §4, §5

CYP1A2 [5] = biological target: T1, CYP1A2 (Rattus norvegicus, UniProt P04799); experiment: Cocktail method in rats: pharmacokinetics of probe drug theophylline (CYP1A2 activity); type: in vivo; conditions: male, Wistar, plasma, iv, 10 mg/kg, theophylline 10 mg/kg iv
T1 construct: from tissue; host or cells: whole animal, male Wistar rats (in vivo pharmacokinetics)
T1 sequence (P04799 1-513): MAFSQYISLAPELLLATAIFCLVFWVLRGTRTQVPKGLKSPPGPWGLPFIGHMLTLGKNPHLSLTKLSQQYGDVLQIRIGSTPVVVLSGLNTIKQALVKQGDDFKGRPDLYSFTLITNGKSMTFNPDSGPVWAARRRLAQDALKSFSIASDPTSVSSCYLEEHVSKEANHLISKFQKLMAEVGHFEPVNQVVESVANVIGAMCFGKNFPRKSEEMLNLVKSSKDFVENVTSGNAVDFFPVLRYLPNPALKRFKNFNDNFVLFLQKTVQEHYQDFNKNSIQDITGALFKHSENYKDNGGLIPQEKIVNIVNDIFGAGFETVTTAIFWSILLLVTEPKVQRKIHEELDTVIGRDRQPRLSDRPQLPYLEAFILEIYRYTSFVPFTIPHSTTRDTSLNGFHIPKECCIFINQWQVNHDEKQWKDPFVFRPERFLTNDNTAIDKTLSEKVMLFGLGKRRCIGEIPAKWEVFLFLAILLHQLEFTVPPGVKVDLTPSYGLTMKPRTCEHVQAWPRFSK
Experimental: as §1, §2, §3, §4, §5

CYP3A4 [6] = system: CYP3A4; set-up: method as in ref 45 = [45]; 45 Han Y. L. Meng X. L. Li D. In Vitro Inhibition of Six Cytochrome P450 Isoforms in Human Liver Microsomes by Qingkailing Injection and Its Two Active Components(Baicalin and Geniposide) Chinese Phar; conditions: Han's research; cited from earlier work
CYP2C9 [7] = system: CYP2C9; set-up: method as in ref 45 = [45]; 45 Han Y. L. Meng X. L. Li D. In Vitro Inhibition of Six Cytochrome P450 Isoforms in Human Liver Microsomes by Qingkailing Injection and Its Two Active Components(Baicalin and Geniposide) Chinese Phar; conditions: Han's research; cited from earlier work
CYP2C19 [8] = system: CYP2C19; set-up: method as in ref 45 = [45]; 45 Han Y. L. Meng X. L. Li D. In Vitro Inhibition of Six Cytochrome P450 Isoforms in Human Liver Microsomes by Qingkailing Injection and Its Two Active Components(Baicalin and Geniposide) Chinese Phar; conditions: Han's research; cited from earlier work
CYP1A2 [9] = system: CYP1A2; set-up: method as in ref 45 = [45]; 45 Han Y. L. Meng X. L. Li D. In Vitro Inhibition of Six Cytochrome P450 Isoforms in Human Liver Microsomes by Qingkailing Injection and Its Two Active Components(Baicalin and Geniposide) Chinese Phar; conditions: Han's research; cited from earlier work
CYP2C19 [10] = conditions: in vivo; cited from earlier work
CYP2C9 [11] = system: CYP2C9; set-up: method as in ref 44 = [44]; 44 Zhang Y. D. Liu X. Q. Guo Y. L. Effects of 20 active ingredients of traditional Chinese herbs on CYP2C9 activities in rat liver microsomes Journal of Third Military Medical University 2013 35 24 26; conditions: rat liver microsomes in vitro; cited from earlier work
[12] = Digeda group (Digeda-4 decoction 600 mg/kg ig 14 days)
[13] = control group (saline ig 14 days)
[14] = positive group (phenobarbital 50 mg/kg ip 7 days)
[15] = positive group (phenobarbital 50 mg/kg ip 7 days), rat plasma
[16] = rat, plasma, iv, 10 mg/kg, Digeda group (Digeda-4 decoction 600 mg/kg ig 14 days)
[17] = rat, plasma, iv, 10 mg/kg, control group (saline ig 14 days)
[18] = rat, plasma, iv, 10 mg/kg, positive group (phenobarbital 50 mg/kg ip 7 days)

Question: Which AUC(0-t) (CYP3A4 [1]; [12]) does the source give for `Cc1ncc2n1-c1ccc(Cl)cc1C(c1ccccc1F)=NC2` [Midazolam, midazolam] here?
Answer: Its AUC(0-t) is 1170 ± 209 ng·h/mL.

Question: And the AUC(0-t) (CYP3A4 [1]; [13])?
Answer: Its AUC(0-t) is 881 ± 151 ng·h/mL.

Question: What about the AUC(0-t) (CYP3A4 [1]; [14]) of the same compound?
Answer: The AUC(0-t) was 653 ± 95 ng·h/mL.

Question: And the AUC(0-inf) (CYP3A4 [1]; [12])?
Answer: Its AUC(0-inf) is 1360 ± 309 ng·h/mL.

Question: And the AUC(0-inf) (CYP3A4 [1]; [13])?
Answer: Its AUC(0-inf) is 928 ± 157 ng·h/mL.

Question: What about the AUC(0-inf) (CYP3A4 [1]; [14]) of the same compound?
Answer: Its AUC(0-inf) is 711 ± 125 ng·h/mL.

Question: What about the clearance (CYP3A4 [1]; [12]) of the same compound?
Answer: The clearance was 69.7 mL/min/kg.

Question: And the clearance (CYP3A4 [1]; [13])?
Answer: The clearance was 104 mL/min/kg.

Question: And the clearance (CYP3A4 [1]; [14])?
Answer: Its clearance is 115 mL/min/kg.

Question: And the Cmax (CYP3A4 [1]; [12])?
Answer: The Cmax was 2680 ± 509 ng/mL.

Question: What about the Cmax (CYP3A4 [1]; [13]) of the same compound?
Answer: Its Cmax is 2900 ± 491 ng/mL.

Question: What about the Cmax (CYP3A4 [1]; [14]) of the same compound?
Answer: Its Cmax is 2560 ± 507 ng/mL.

Question: What about the half-life (CYP3A4 [1]; T1/2, Digeda group (Digeda-4 decoction 600 mg/kg ig 14 days)) of the same compound?
Answer: The half-life was 11.9 ± 1.92 min.

Question: And the half-life (CYP3A4 [1]; T1/2, control group (saline ig 14 days))?
Answer: The half-life was 8.64 ± 1.8 min.

Question: And the half-life (CYP3A4 [1]; T1/2, positive group (phenobarbital 50 mg/kg ip 7 days))?
Answer: The half-life was 6.3 ± 0.96 min.

Question: For `CC1(C)CC[C@]2(C(=O)O)CC[C@]3(C)C(=CC[C@@H]4[C@@]5(C)CC[C@H](O)C(C)(C)[C@@H]5CC[C@]43C)[C@@H]2C1` [Oleanolic acid], which “effect on CYP1A2 activity” value (CYP1A2 [2]) is on record?
Answer: Its value is “can inhibit CYP1A2 activity significantly”.

Question: What about the “effect on CYP3A4” value (CYP3A4 [3]) of the same compound?
Answer: Its value is “no effect”.

Question: What about the “effect on CYP2E1 activity” value (CYP2E1) of the same compound?
Answer: Its value is “little inhibition”.

Question: Which clearance (CYP2C19 [4]; [15]) does the source give for `COc1ccc2[nH]c([S+]([O-])Cc3ncc(C)c(OC)c3C)nc2c1` (stereo not drawn) [Omeprazole, omeprazole] here?
Answer: Its clearance is 10.2 mL/min/kg.

Question: What about the half-life (CYP2C19 [4]; [15]) of the same compound?
Answer: Its half-life is 7.08 ± 1.2 min.

Question: What about the AUC(0-inf) (CYP2C19 [4]; [16]) of the same compound?
Answer: Its AUC(0-inf) is 14200 ± 2610 ng·h/mL.

Question: And the AUC(0-t) (CYP2C19 [4]; [16])?
Answer: The AUC(0-t) was 13300 ± 2630 ng·h/mL.

Question: What about the Cmax (CYP2C19 [4]; [16]) of the same compound?
Answer: The Cmax was 38600 ± 6690 ng/mL.

Question: And the clearance (CYP2C19 [4]; [16])?
Answer: Its clearance is 4.9 mL/min/kg.

Question: What about the half-life (CYP2C19 [4]; [16]) of the same compound?
Answer: Its half-life is 16.9 ± 2.76 min.

Question: And the AUC(0-inf) (CYP2C19 [4]; [17])?
Answer: Its AUC(0-inf) is 7280 ± 1310 ng·h/mL.

Question: What about the AUC(0-t) (CYP2C19 [4]; [17]) of the same compound?
Answer: Its AUC(0-t) is 6920 ± 1390 ng·h/mL.

Question: What about the Cmax (CYP2C19 [4]; [17]) of the same compound?
Answer: Its Cmax is 20900 ± 3710 ng/mL.

Question: And the clearance (CYP2C19 [4]; [17])?
Answer: The clearance was 8 mL/min/kg.

Question: What about the half-life (CYP2C19 [4]; [17]) of the same compound?
Answer: The half-life was 9.78 ± 1.92 min.

Question: What about the AUC(0-inf) (CYP2C19 [4]; [18]) of the same compound?
Answer: Its AUC(0-inf) is 5340 ± 993 ng·h/mL.

Question: And the AUC(0-t) (CYP2C19 [4]; [18])?
Answer: Its AUC(0-t) is 4980 ± 845 ng·h/mL.

Question: What about the Cmax (CYP2C19 [4]; [18]) of the same compound?
Answer: The Cmax was 16900 ± 2630 ng/mL.

Question: Which AUC(0-inf) (CYP1A2 [5]; [12]) does the source give for `Cn1c(=O)c2[nH]cnc2n(C)c1=O` [Theophylline, theophylline] here?
Answer: Its AUC(0-inf) is 569 ± 142 µg·h/mL.

Question: And the AUC(0-t) (CYP1A2 [5]; [12])?
Answer: The AUC(0-t) was 299 ± 67 µg·h/mL.

Question: What about the Cmax (CYP1A2 [5]; [12]) of the same compound?
Answer: The Cmax was 30700 ± 5450 ng/mL.

Question: And the clearance (CYP1A2 [5]; [12])?
Answer: The clearance was 0.333 mL/min/kg.

Question: What about the half-life (CYP1A2 [5]; [12]) of the same compound?
Answer: The half-life was 835 ± 160 min.

Question: And the AUC(0-inf) (CYP1A2 [5]; [13])?
Answer: Its AUC(0-inf) is 326 ± 76.9 µg·h/mL.

Question: And the AUC(0-t) (CYP1A2 [5]; [13])?
Answer: Its AUC(0-t) is 206 ± 37.1 µg·h/mL.

Question: What about the Cmax (CYP1A2 [5]; [13]) of the same compound?
Answer: The Cmax was 31800 ± 5610 ng/mL.

Question: And the clearance (CYP1A2 [5]; [13])?
Answer: The clearance was 0.55 mL/min/kg.

Question: What about the half-life (CYP1A2 [5]; [13]) of the same compound?
Answer: Its half-life is 402 ± 97.5 min.

Question: And the AUC(0-inf) (CYP1A2 [5]; [14])?
Answer: The AUC(0-inf) was 118 ± 21.4 µg·h/mL.

Question: What about the AUC(0-t) (CYP1A2 [5]; [14]) of the same compound?
Answer: The AUC(0-t) was 71.9 ± 15.4 µg·h/mL.

Question: And the Cmax (CYP1A2 [5]; [14])?
Answer: The Cmax was 30000 ± 5180 ng/mL.

Question: What about the clearance (CYP1A2 [5]; [14]) of the same compound?
Answer: Its clearance is 1.02 mL/min/kg.

Question: What about the half-life (CYP1A2 [5]; [14]) of the same compound?
Answer: The half-life was 148 ± 21.5 min.

Question: What does the source list for `COC(=O)C1=CO[C@@H](O[C@@H]2O[C@H](CO)[C@@H](O)[C@H](O)[C@H]2O)[C@@H]2C(CO)=CC[C@H]12` [geniposide]?
Answer: inhibitory effect on CYP3A4 (CYP3A4 [6]): no inhibitory effect; inhibitory effect on CYP2C9 (CYP2C9 [7]): no inhibitory effect; inhibitory effect on CYP2C19 (CYP2C19 [8]): no inhibitory effect; inhibitory effect on CYP1A2 (CYP1A2 [9]): no inhibitory effect

Question: For `COc1cc(C(=O)O[C@H]2[C@@H]3C=CO[C@@H](O[C@@H]4O[C@H](CO)[C@@H](O)[C@H](O)[C@H]4O)[C@@H]3[C@@]3(CO)O[C@@H]23)ccc1O` [picroside II], which “effect on the activity of CYP2C19” value (CYP2C19 [10]) is on record?
Answer: The value was “inhibitory effect”.

Question: Which “effect on CYP2C9 activity” value (CYP2C9 [11]) does the source give for `C=C[C@H]1[C@H](O[C@@H]2O[C@H](CO)[C@@H](O)[C@H](O)[C@H]2O)OC=C2C(=O)OCC[C@]21O` [swertiamarin] here?
Answer: The value was “inhibitory effect”.
